Data reported in paper PMC6001238, “Iterative Chemical Engineering of Vancomycin Leads to Novel Vancomycin Analogs With a High in Vitro Therapeutic Index” (Frontiers in Microbiology, 2018).
≈ marks a conversion by molar mass, not a printed value.

Columns and labels:
[1] = system: E. faecalis VRE 53; assay: MIC, broth microdilution, vancomycin-resistant E. faecalis VRE 53 (VanA); assay type: cell-based, Enterococcus faecalis; settings: for MIC: Enterococcus faecalis VRE 53 (vancomycin-resistant), read-out: MIC; for MIC-fold improvement vs. vancomycin: VRE 53, ratio of MIC of vancomycin and MIC of analogue
Procedure: (§1) The minimum inhibitory concentration (MIC) was determined using the broth microdilution method according to the antimicrobial susceptibility testing standards of the clinical and laboratory standards institute ([Clinical and Laboratory Standards Institute [CLSI], 2012]). Ultrapure water and non-inoculated broth were used as controls. In one case, a final concentration of 10 μM vancomycin was included with the vancomycin analog or control antibiotic.

[2] = system: MRSA KS6; assay: MIC, broth microdilution, MRSA KS6; assay type: cell-based, Staphylococcus aureus; settings: for MIC-fold improvement vs. vancomycin: MRSA KS6, ratio of MIC of vancomycin and MIC of analogue; for MIC: Staphylococcus aureus MRSA KS6, read-out: MIC
Procedure: as §1

[3] = system: S. aureus VISA/HIP5827; assay: MIC, broth microdilution, vancomycin-intermediate S. aureus VISA HIP5827; assay type: cell-based, Staphylococcus aureus; settings: for MIC: Staphylococcus aureus VISA/HIP5827, read-out: MIC; for MIC-fold improvement vs. vancomycin: VISA/HIP5827, ratio of MIC of vancomycin and MIC of analogue
Procedure: as §1

[4] = system: S. aureus VRSA; assay: MIC, broth microdilution, vancomycin-resistant S. aureus (VRSA); assay type: cell-based, Staphylococcus aureus; settings: for MIC: Staphylococcus aureus VRSA, read-out: MIC; for MIC-fold improvement vs. vancomycin: VRSA, ratio of MIC of vancomycin and MIC of analogue
Procedure: as §1

[5] = system: E. faecalis VRE 6; assay: MIC, broth microdilution, vancomycin-resistant E. faecalis VRE 6 (VanA); assay type: cell-based, Enterococcus faecalis; settings: for MIC: Enterococcus faecalis VRE 6 (vancomycin-resistant), read-out: MIC; for MIC-fold improvement vs. vancomycin: VRE 6, ratio of MIC of vancomycin and MIC of analogue
Procedure: as §1

[6] = system: S. aureus VSSA (ATCC 6538); assay: MIC, broth microdilution, vancomycin-sensitive S. aureus (VSSA/MSSA, ATCC 6538); assay type: cell-based, Staphylococcus aureus; settings: for MIC: Staphylococcus aureus VSSA, read-out: MIC; for MIC-fold improvement vs. vancomycin: VSSA, ratio of MIC of vancomycin and MIC of analogue
Procedure: as §1

[7] = system: MRSA KS89; assay: MIC, broth microdilution, MRSA KS89; assay type: cell-based, Staphylococcus aureus; settings: for MIC-fold improvement vs. vancomycin: MRSA KS8, ratio of MIC of vancomycin and MIC of analogue; for MIC: Staphylococcus aureus MRSA KS8, read-out: MIC
Procedure: as §1

[8] = system: E. faecalis VRE 29; assay: MIC, broth microdilution, vancomycin-resistant E. faecalis VRE 29 (VanA); assay type: cell-based, Enterococcus faecalis; settings: for MIC: Enterococcus faecalis VRE 29 (vancomycin-resistant), read-out: MIC; for MIC-fold improvement vs. vancomycin: VRE 29, ratio of MIC of vancomycin and MIC of analogue
Procedure: as §1

[9] = system: human T-lymphocyte (CEM) cells; assay: Cytostatic activity, CEM cell proliferation; assay type: cell-based; settings: mean ± SD of three experiments; highest concentration tested 250 µM; 3 days; read-out: Toxicity (IC50) CEM
Procedure: (§2) Murine leukemia (L1210), human T-lymphocyte (CEM) and the human cervix carcinoma (HeLa) cell line were suspended at 300,000–500,000 cells/mL of culture medium, and 100 μL of a cell suspension was added to 100 μL of an appropriate dilution of the test compounds in wells of 96-well microtiter plates. After incubation at 37°C for 2 (L1210), 3 (CEM), or 4 (HeLa) days, the cell number was determined using a Coulter counter. The IC50 was defined per cell type as the compound concentration required to inhibit cell proliferation by 50% compared to the negative control ([Glowacka et al., 2017]).

[10] = system: E. faecalis VSE 1; assay: MIC, broth microdilution, vancomycin-sensitive E. faecalis (VSE 1); assay type: cell-based, Enterococcus faecalis; settings: for MIC: Enterococcus faecalis VSE 1 (vancomycin-sensitive), read-out: MIC; for MIC-fold improvement vs. vancomycin: VSE 1, ratio of MIC of vancomycin and MIC of analogue
Procedure: as §1

[11] = system: L1210, CEM and HeLa cell lines; assay: Cytostatic activity, average or summary over L1210, CEM and HeLa; assay type: cell-based; settings: average of L1210, CEM and HeLa; read-out: Toxicity (IC50) Average
Procedure: as §2

[12] = system: E. faecalis VRE 37; assay: MIC, broth microdilution, vancomycin-resistant E. faecalis VRE 37 (VanA); assay type: cell-based, Enterococcus faecalis; settings: for MIC: Enterococcus faecalis VRE 37 (vancomycin-resistant), read-out: MIC; for MIC-fold improvement vs. vancomycin: VRE 37, ratio of MIC of vancomycin and MIC of analogue
Procedure: as §1

[13] = system: human cervix carcinoma (HeLa) cells; assay: Cytostatic activity, HeLa cell proliferation; assay type: cell-based; settings: mean ± SD of three experiments; highest concentration tested 250 µM; 4 days; read-out: Toxicity (IC50) HeLa
Procedure: as §2

[14] = system: MRSA KS2; assay: MIC, broth microdilution, MRSA KS2; assay type: cell-based, Staphylococcus aureus; settings: for MIC-fold improvement vs. vancomycin: MRSA KS2, ratio of MIC of vancomycin and MIC of analogue; for MIC: Staphylococcus aureus MRSA KS2, read-out: MIC
Procedure: as §1

[15] = system: Murine leukemia (L1210) cells; assay: Cytostatic activity, L1210 cell proliferation; assay type: cell-based; settings: mean ± SD of three experiments; highest concentration tested 250 µM; 2 days; read-out: Toxicity (IC50) L1210
Procedure: as §2

[16] = system: MRSA KS1; assay: MIC, broth microdilution, MRSA KS1; assay type: cell-based, Staphylococcus aureus; settings: for MIC-fold improvement vs. vancomycin: MRSA KS1, ratio of MIC of vancomycin and MIC of analogue; for MIC: Staphylococcus aureus MRSA KS1, read-out: MIC
Procedure: as §1

SMILES | MIC [1] | MIC-fold improvement vs. vancomycin [2] | MIC [2] | MIC [3] | MIC-fold improvement vs. vancomycin [3] | MIC [4] | MIC-fold improvement vs. vancomycin [4] | MIC [5] | MIC-fold improvement vs. vancomycin [5] | MIC [6] | MIC-fold improvement vs. vancomycin [6] | MIC-fold improvement vs. vancomycin [7] | MIC [7] | MIC [8] | IC50 [9] | MIC [10] | MIC-fold improvement vs. vancomycin [10] | IC50 [11] | MIC [12] | IC50 [13] | other results
CNC(CC(C)C)C(=O)NC1C(=O)NC(CC(N)=O)C(=O)NC2C(=O)NC3C(=O)NC(C(=O)NC(C(=O)NCC(=O)Nc4ccc(O)cc4)c4cc(O)cc(O)c4-c4cc3ccc4O)C(O)c3ccc(c(Cl)c3)Oc3cc2cc(c3OC2OC(CO)C(O)C(O)C2OC2CC(C)(N)C(O)C(C)O2)Oc2ccc(cc2Cl)C1O (stereo not shown) [Vanc-1] | 25 µM (≈ 39.9 µg/mL) | 1 | 0.78 µM (≈ 1.25 µg/mL) | 0.78 µM (≈ 1.25 µg/mL) | 8 | 25 µM (≈ 39.9 µg/mL) | 4 | 25 µM (≈ 39.9 µg/mL) | 8 | 0.78 µM (≈ 1.25 µg/mL) | 1 | 1 | 0.78 µM (≈ 1.25 µg/mL) | >50 µM | > 250 µM | 0.78 µM (≈ 1.25 µg/mL) | 2 | 191 µM | 50 µM (≈ 79.9 µg/mL) | 72 ± 10 µM | MIC-fold improvement vs. vancomycin [1]: 16; MIC-fold improvement vs. vancomycin [8]: <8; MIC-fold improvement vs. vancomycin [12]: 16; MIC-fold improvement vs. vancomycin [14]: 1; MIC [14]: 0.78 µM (≈ 1.25 µg/mL); IC50 [15]: > 250 µM; MIC-fold improvement vs. vancomycin [16]: 1; MIC [16]: 0.78 µM (≈ 1.25 µg/mL)
CN[C@H](CC(C)C)C(=O)N[C@H]1C(=O)N[C@@H](CC(N)=O)C(=O)N[C@H]2C(=O)N[C@H]3C(=O)N[C@H](C(=O)N[C@H](C(=O)NCC(=O)Nc4ccc(C)cc4Cl)c4cc(O)cc(O)c4-c4cc3ccc4O)[C@H](O)c3ccc(c(Cl)c3)Oc3cc2cc(c3O[C@@H]2O[C@H](CO)[C@@H](O)[C@H](O)[C@H]2O[C@H]2C[C@](C)(N)[C@H](O)[C@H](C)O2)Oc2ccc(cc2Cl)[C@H]1O [Vanc-2] | 25 µM (≈ 40.7 µg/mL) | 2 | 0.39 µM (≈ 0.636 µg/mL) | 0.78 µM (≈ 1.27 µg/mL) | 8 | 12.5 µM (≈ 20.4 µg/mL) | 8 | 12.5 µM (≈ 20.4 µg/mL) | 16 | 0.78 µM (≈ 1.27 µg/mL) | 1 | 2 | 0.39 µM (≈ 0.636 µg/mL) | 12.5 µM (≈ 20.4 µg/mL) | > 250 µM | 0.39 µM (≈ 0.636 µg/mL) | 4 | 219 µM | 25 µM (≈ 40.7 µg/mL) | 158 ± 84 µM | MIC-fold improvement vs. vancomycin [1]: 16; MIC-fold improvement vs. vancomycin [8]: 32; MIC-fold improvement vs. vancomycin [14]: 2; MIC [14]: 0.39 µM (≈ 0.636 µg/mL); IC50 [15]: > 250 µM; MIC-fold improvement vs. vancomycin [16]: 2; MIC [16]: 0.39 µM (≈ 0.636 µg/mL)
CN[C@H](CC(C)C)C(=O)N[C@H]1C(=O)N[C@@H](CC(N)=O)C(=O)N[C@H]2C(=O)N[C@H]3C(=O)N[C@H](C(=O)N[C@H](C(=O)NCC(=O)Nc4ccccc4)c4cc(O)cc(O)c4-c4cc3ccc4O)[C@H](O)c3ccc(c(Cl)c3)Oc3cc2cc(c3O[C@@H]2O[C@H](CO)[C@@H](O)[C@H](O)[C@H]2O[C@H]2C[C@](C)(N)[C@H](O)[C@H](C)O2)Oc2ccc(cc2Cl)[C@H]1O [Vanc-3] | 25 µM (≈ 39.5 µg/mL) | 1 | 0.78 µM (≈ 1.23 µg/mL) | 0.78 µM (≈ 1.23 µg/mL) | 8 | 25 µM (≈ 39.5 µg/mL) | 4 | 12.5 µM (≈ 19.8 µg/mL) | 16 | 0.78 µM (≈ 1.23 µg/mL) | 1 | 1 | 0.78 µM (≈ 1.23 µg/mL) | 25 µM (≈ 39.5 µg/mL) | > 250 µM | 0.78 µM (≈ 1.23 µg/mL) | 2 | > 250 µM | 25 µM (≈ 39.5 µg/mL) | > 250 µM | MIC-fold improvement vs. vancomycin [1]: 16; MIC-fold improvement vs. vancomycin [8]: 16; MIC-fold improvement vs. vancomycin [14]: 1; MIC [14]: 0.78 µM (≈ 1.23 µg/mL); IC50 [15]: > 250 µM; MIC-fold improvement vs. vancomycin [16]: 1; MIC [16]: 0.78 µM (≈ 1.23 µg/mL)
CN[C@H](CC(C)C)C(=O)N[C@H]1C(=O)N[C@@H](CC(N)=O)C(=O)N[C@H]2C(=O)N[C@H]3C(=O)N[C@H](C(=O)N[C@H](C(=O)NCC(=O)Nc4ccc(OC)cc4)c4cc(O)cc(O)c4-c4cc3ccc4O)[C@H](O)c3ccc(c(Cl)c3)Oc3cc2cc(c3O[C@@H]2O[C@H](CO)[C@@H](O)[C@H](O)[C@H]2O[C@H]2C[C@](C)(N)[C@H](O)[C@H](C)O2)Oc2ccc(cc2Cl)[C@H]1O [Vanc-5] | 12.5 µM (≈ 20.1 µg/mL) | 1 | 0.78 µM (≈ 1.26 µg/mL) | 0.39 µM (≈ 0.628 µg/mL) | 16 | 12.5 µM (≈ 20.1 µg/mL) | 8 | 6.25 µM (≈ 10.1 µg/mL) | 32 | 0.39 µM (≈ 0.628 µg/mL) | 2 | 1 | 0.78 µM (≈ 1.26 µg/mL) | 12.5 µM (≈ 20.1 µg/mL) | > 250 µM | 0.78 µM (≈ 1.26 µg/mL) | 2 | > 250 µM | 12.5 µM (≈ 20.1 µg/mL) | > 250 µM | MIC-fold improvement vs. vancomycin [1]: 32; MIC-fold improvement vs. vancomycin [8]: 32; MIC-fold improvement vs. vancomycin [12]: 64; MIC-fold improvement vs. vancomycin [14]: 2; MIC [14]: 0.39 µM (≈ 0.628 µg/mL); IC50 [15]: > 250 µM; MIC-fold improvement vs. vancomycin [16]: 1; MIC [16]: 0.78 µM (≈ 1.26 µg/mL)
CN[C@H](CC(C)C)C(=O)N[C@H]1C(=O)N[C@@H](CC(N)=O)C(=O)N[C@H]2C(=O)N[C@H]3C(=O)N[C@H](C(=O)N[C@H](C(=O)NCC(=O)Nc4ccc(Cl)cc4)c4cc(O)cc(O)c4-c4cc3ccc4O)[C@H](O)c3ccc(c(Cl)c3)Oc3cc2cc(c3O[C@@H]2O[C@H](CO)[C@@H](O)[C@H](O)[C@H]2O[C@H]2C[C@](C)(N)[C@H](O)[C@H](C)O2)Oc2ccc(cc2Cl)[C@H]1O [Vanc-6] | 12.5 µM (≈ 20.2 µg/mL) | 2 | 0.39 µM (≈ 0.63 µg/mL) | 0.39 µM (≈ 0.63 µg/mL) | 16 | 3.13 µM (≈ 5.06 µg/mL) | 32 | 3.13 µM (≈ 5.06 µg/mL) | 64 | 0.39 µM (≈ 0.63 µg/mL) | 2 | 2 | 0.39 µM (≈ 0.63 µg/mL) | 6.25 µM (≈ 10.1 µg/mL) | 159 ± 13 µM | 0.39 µM (≈ 0.63 µg/mL) | 4 | 167 µM | 12.5 µM (≈ 20.2 µg/mL) | 91 ± 33 µM | MIC-fold improvement vs. vancomycin [12]: 64; MIC-fold improvement vs. vancomycin [14]: 2; MIC [14]: 0.39 µM (≈ 0.63 µg/mL); IC50 [15]: > 250 µM; MIC-fold improvement vs. vancomycin [16]: 2; MIC [16]: 0.39 µM (≈ 0.63 µg/mL)
